We go through 16 compounds from US20240010640A1, “ANTAGONISTS OF THE MUSCARINIC ACETYLCHOLINE RECEPTOR M4” (Vanderbilt University, priority 2020, published 2024).

The experiment deals with T1, Human M4 (Homo sapiens, UniProt P08173).
T1 construct: Human or rat M4 cDNA, along with the chimeric G protein Gqi5, were transfected into Chinese hamster ovary (CHO-K1) cells; expressed in transfected cells; host or cells: CHO-K1 (Chinese hamster ovary, ATCC), stably expressing M4 and Gqi5
T1 sequence (P08173 1-479): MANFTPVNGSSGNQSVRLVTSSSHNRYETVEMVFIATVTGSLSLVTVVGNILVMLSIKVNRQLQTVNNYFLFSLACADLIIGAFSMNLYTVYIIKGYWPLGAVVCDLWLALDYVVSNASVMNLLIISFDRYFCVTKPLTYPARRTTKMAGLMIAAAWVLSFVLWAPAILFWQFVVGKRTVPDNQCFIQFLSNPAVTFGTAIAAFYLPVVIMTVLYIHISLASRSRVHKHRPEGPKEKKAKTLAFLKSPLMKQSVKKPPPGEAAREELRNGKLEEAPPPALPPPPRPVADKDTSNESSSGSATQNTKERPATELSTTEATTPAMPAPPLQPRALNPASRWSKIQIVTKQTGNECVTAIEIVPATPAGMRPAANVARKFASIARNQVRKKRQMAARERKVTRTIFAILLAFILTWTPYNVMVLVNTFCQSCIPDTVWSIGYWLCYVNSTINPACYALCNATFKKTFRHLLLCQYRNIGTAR
Put plainly: mAChR M4 cell-based functional assay (calcium flux, antagonist mode). As to conditions: for pIC50: Human M4/Gqi5 CHO-K1 cells, decrease of acetylcholine response; for Emin (% ACh maximum at 30 μM): Human M4. As for the experimental part:
Human or rat M4 cDNA, along with the chimeric G protein Gqi5, were transfected into Chinese hamster ovary (CHO-K1) cells purchased from the American Type Culture Collection using Lipofectamine2000. M4/Gqi5/CHO cells were grown in Ham's F-12 medium containing 10% heat-inactivated fetal bovine serum (FBS), 20 mM HEPES, 500 μg/mL G418 sulfate, and 200 μg/mL Hygromycin B.
For high throughput measurement of agonist-evoked increases in intracellular calcium, CHO-K1 cells stably expressing muscarinic receptors were plated in growth medium lacking G418 and hygromycin at 15,000 cells/20 μL/well in Greiner 384-well black-walled, tissue culture (TC)-treated, clear-bottom plates (VWR). Cells were incubated overnight at 37° C. and 5% CO2. The next day, cells were washed using an ELX 405 (BioTek) with assay buffer; the final volume was then aspirated to 20 μL. Next, 20 μL of a 2.3 μM stock of Fluo-4/acetoxymethyl ester (Invitrogen, Carlsbad, CA), prepared as a 2.3 mM stock in DMSO and mixed in a 1:1 ratio with 10% (w/v) Pluronic F-127 and diluted in assay buffer, was added to the wells and the cell plates were incubated for 50 min at 37° C. and 5% CO2. Dye was removed by washing with the ELX 405 and the final volume was aspirated to 20 μL. Compound master plates were formatted in a 10 point concentration-response curve (CRC) format (1:3 dilutions) in 100% DMSO with a starting concentration of 10 or 1 mM using a BRAVO liquid handler (Agilent). Test compound CRCs were then transferred to daughter plates (240 nL) using the Echo acoustic plate reformatter (Labcyte, Sunnyvale, CA) and then diluted into assay buffer (40 μL) to a 2× stock using a Thermo Fisher Combi (Thermo Fisher Scientific, Waltham, MA).
Calcium flux was measured using the Functional Drug Screening System (FDSS) 6000 or 7000 (Hamamatsu Corporation, Tokyo, Japan) as an increase in the fluorescent static ratio. Compounds were applied to cells (20 μL, 2×) using the automated system of the FDSS at 2 seconds into the protocol and the data were collected at 1 Hz. At 143 s, 10 μL of an EC20 concentration of the muscarinic receptor agonist acetylcholine was added (5×), followed by the addition of 12 μL of an […] concentration of acetylcholine at the 268 s time point (5×). Agonist activity was analyzed as a concentration-dependent increase in calcium mobilization upon compound addition. Positive allosteric modulator activity was analyzed as a concentration-dependent increase in the EC20 acetylcholine response. Antagonist activity was analyzed as a concentration-dependent decrease in the EC80 acetylcholine response; for the purposes of the tables herein, an IC50 (inhibitory concentration 50) was calculated as a concentration-dependent decrease of the response elicited by an […] concentration of acetylcholine. Concentration-response curves were generated using a four-parameter logistical equation in XLFit curve fitting software (IDBS, Bridgewater, NJ) for Excel (Microsoft, Redmond, WA) or Prism (GraphPad Software, Inc., San Diego, CA) or the Dotmatics software platform (Dotmatics, Bishop's Stortford, UK).
Compounds were synthesized as described above. Activity (IC50 and Emin) was determined in the mAChR M4 cell-based functional assay as described above and the data are shown in Table 1.
(In general: Calcium assays in cells follow changes in intracellular calcium, usually with a dye or a luminescent sensor.)

Molecules are shown by their SMILES. pIC50: −log10 of the molar value.

As usually defined, the pIC50 is the IC50 on a negative log10 scale, so that one unit is a factor of ten. Consider `O=c1ccc(-c2ccc(N[C@H]3C[C@@H]4CN(CC5CCOCC5)C[C@@H]4C3)nn2)cn1CC1CC1` [A15, 1-(cyclopropylmethyl)-5-(6-(((3aR,5s,6aS)-2-((tetrahydro-2H-pyran-4-yl)methyl)octahydrocyclopenta[c]pyrrol-5-yl)amino)pyridazin-3-yl)pyridin-2(1H)-one], for which the pIC50 was 7.71 and the “Emin (% ACh maximum at 30 μM)” value stood at 4%.

As to `Cn1cc(-c2ccc(N[C@H]3C[C@@H]4CN(CC5CCCOC5)C[C@@H]4C3)nn2)ccc1=O` (stereo partly drawn) [A10, 1-methyl-5-(6-(((3aR,5s,6aS)-2-((tetrahydro-2H-pyran-3-yl)methyl)octahydrocyclopenta[c]pyrrol-5-yl)amino)pyridazin-3-yl)pyridin-2(1H)-one], the pIC50 is 6.89 and the “Emin (% ACh maximum at 30 μM)” value is given as 4%.

For the compound `[2H]C([2H])(C1CCOCC1)N1C[C@H]2C[C@H](Nc3ccc(-c4ccc(=O)n(C)c4)nn3)C[C@H]2C1` [A2, 1-methyl-5-(6-(((3aR,5s,6aS)-2-((tetrahydro-2H-pyran-4-yl)methyl-d2)octahydrocyclopenta[c]pyrrol-5-yl)amino)pyridazin-3-yl)pyridin-2(1H)-one], the pIC50 was 7.47 and the “Emin (% ACh maximum at 30 μM)” value is given as 4%.

Consider `Cn1cc(C(F)(F)F)cc(-c2ccc(N[C@H]3C[C@@H]4CN(CC5CCOCC5)C[C@@H]4C3)nn2)c1=O` [A9, 1-methyl-3-(6-(((3aR,5s,6aS)-2-((tetrahydro-2H-pyran-4-yl)methyl)octahydrocyclopenta[c]pyrrol-5-yl)amino)pyridazin-3-yl)-5-(trifluoromethyl)pyridin-2(1H)-one], for which the pIC50 was 7.56 and the “Emin (% ACh maximum at 30 μM)” value worked out at 4%.

In the case of `O=c1cc(-c2ccc(N[C@H]3C[C@@H]4CN(CC5CCOCC5)C[C@@H]4C3)nn2)ccn1C(F)F` [A6, 1-(difluoromethyl)-4-(6-(((3aR,5s,6aS)-2-((tetrahydro-2H-pyran-4-yl)methyl)octahydrocyclopenta[c]pyrrol-5-yl)amino)pyridazin-3-yl)pyridin-2(1H)-one], the negative-log IC50 (pIC50) was 8.23 and the “Emin (% ACh maximum at 30 μM)” value amounted to 9%.

`Cn1cccc(-c2ccc(N[C@H]3C[C@@H]4CN(CC5CCOCC5)C[C@@H]4C3)nn2)c1=O` [A4, 1-methyl-3-(6-(((3aR,5s,6aS)-2-((tetrahydro-2H-pyran-4-yl)methyl)octahydrocyclopenta[c]pyrrol-5-yl)amino)pyridazin-3-yl)pyridin-2(1H)-one]: the pIC50 is 7.81 and the “Emin (% ACh maximum at 30 μM)” value worked out at 5%.

As to `[2H]C([2H])(C1CCOCC1)N1C[C@H]2C[C@H](Nc3ccc(-c4cccn(C)c4=O)nn3)C[C@H]2C1` [A3, 1-methyl-3-(6-(((3aR,5s,6aS)-2-((tetrahydro-2H-pyran-4-yl)methyl-d2)octahydrocyclopenta[c]pyrrol-5-yl)amino)pyridazin-3-yl)pyridin-2(1H)-one], the pIC50 is 8.23 and the “Emin (% ACh maximum at 30 μM)” value stood at 4%.

With `Cc1cc(-c2ccc(N[C@H]3C[C@@H]4CN(CC5CCOCC5)C[C@@H]4C3)nn2)c(=O)[nH]n1` [A8, 6′-methyl-6-(((3aR,5s,6aS)-2-((tetrahydro-2H-pyran-4-yl)methyl)octahydrocyclopenta[c]pyrrol-5-yl)amino)-[3,4′-bipyridazin]-3′(2′H)-one], the pIC50 is 6.87 and the “Emin (% ACh maximum at 30 μM)” value stood at 8%.

For `[2H]C([2H])(C1CCOCC1)N1C[C@H]2C[C@H](Nc3ccc(-c4ccn(C)c(=O)c4)nn3)C[C@H]2C1` [A1, 1-methyl-4-(6-(((3aR,5s,6aS)-2-((tetrahydro-2H-pyran-4-yl)methyl-d2)octahydrocyclopenta[c]pyrrol-5-yl)amino)pyridazin-3-yl)pyridin-2(1H)-one], the pIC50 is 7.09 and the “Emin (% ACh maximum at 30 μM)” value worked out at 5%.

For the compound `Cn1cc(-c2ccc(N[C@H]3C[C@@H]4CN(CCC(C)(C)C)C[C@@H]4C3)nn2)ccc1=O` [A13, 5-(6-(((3aR,5s,6aS)-2-(3,3-dimethylbutyl)octahydrocyclopenta[c]pyrrol-5-yl)amino)pyridazin-3-yl)-1-methylpyridin-2(1H)-one], the pIC50 is 9.00 and the “Emin (% ACh maximum at 30 μM)” value is given as 3%.

For the compound `[2H]C([2H])(C1CCOCC1)N1C[C@H]2C[C@H](Nc3ccc(-c4ccc(=O)n(CC5CC5)c4)nn3)C[C@H]2C1` [A14, 1-(cyclopropylmethyl)-5-(6-(((3aR,5s,6aS)-2-((tetrahydro-2H-pyran-4-yl)methyl-d2)octahydrocyclopenta[c]pyrrol-5-yl)amino)pyridazin-3-yl)pyridin-2(1H)-one], the pIC50 was 7.54 and the “Emin (% ACh maximum at 30 μM)” value was determined as 3%.

As for `Cn1cc(-c2ccc(N[C@H]3C[C@@H]4CN(CC5CCCCC5)C[C@@H]4C3)nn2)ccc1=O` [A11, 5-(6-(((3aR,5s,6aS)-2-(cyclohexylmethyl)octahydrocyclopenta[c]pyrrol-5-yl)amino)pyridazin-3-yl)-1-methylpyridin-2(1H)-one], the pIC50 is 8.46 and the “Emin (% ACh maximum at 30 μM)” value is 3%.

As for `Cn1cc(-c2ccc(N[C@H]3C[C@@H]4CN(CC5CCOCC5)C[C@@H]4C3)nn2)cnc1=O` [A7, 1-methyl-5-(6-(((3aR,5s,6aS)-2-((tetrahydro-2H-pyran-4-yl)methyl)octahydrocyclopenta[c]pyrrol-5-yl)amino)pyridazin-3-yl)pyrimidin-2(1H)-one], the pIC50 is 6.29 and the “Emin (% ACh maximum at 30 μM)” value was determined as 7%.

As for `Cn1cc(-c2ccc(N[C@H]3C[C@@H]4CN(Cc5ccccn5)C[C@@H]4C3)nn2)ccc1=O` [A12, 1-methyl-5-(6-(((3aR,5s,6aS)-2-(pyridin-2-ylmethyl)octahydrocyclopenta[c]pyrrol-5-yl)amino)pyridazin-3-yl)pyridin-2(1H)-one], the pIC50 is 6.12 and the “Emin (% ACh maximum at 30 μM)” value is listed as 9%.

Turning to `Cn1cccc(-c2cnc(N[C@H]3C[C@@H]4CN(CC5CCOCC5)C[C@@H]4C3)nc2)c1=O` [B1, 1-methyl-3-(2-(((3aR,5s,6aS)-2-((tetrahydro-2H-pyran-4-yl)methyl)octahydrocyclopenta[c]pyrrol-5-yl)amino)pyrimidin-5-yl)pyridin-2(1H)-one], the pIC50 is 5.47 and the “Emin (% ACh maximum at 30 μM)” value is listed as 10%.

`[2H]C([2H])(C1CCOCC1)N1C[C@H]2C[C@H](Nc3ccc(-c4cc(F)c(=O)n(C)c4)nn3)C[C@H]2C1` [A18, 3-fluoro-1-methyl-5-(6-(((3aR,5s,6aS)-2-((tetrahydro-2H-pyran-4-yl)methyl-d2)octahydrocyclopenta[c]pyrrol-5-yl)amino)pyridazin-3-yl)pyridin-2(1H)-one]: the pIC50 was 7.94 and the “Emin (% ACh maximum at 30 μM)” value is listed as 4%.
